How the values were obtained:
[1] = system: Friend Leukemia Virus; test: Inhibition of Friend Leukemia Virus-induced splenomegaly in mice, compounds intraperitoneally 24 hours after virus (Example 1(a)); assay type: in vivo, BALB/c mice; details: dose 150 mg (so in the source); Table III second set
In short: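 BALB/c mice inoculated i.v. with 10^6 FFU Friend virus (spleen homogenate); compounds given i.p. 24 h later at 100 μg once, or 50, 100, 200 μg or 2×100 μg (second dose 24–48 h after first), two mice per group. Spleens weighed at day 10; percent inhibition from average spleen weights relative to negative and positive controls.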

[2] = system: retroviruses; test: Comparison over two in vitro and one in vivo biological assays (Example 10); details: Example 10
In short: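 In vitro direct inactivation of retroviruses was tested alongside in vivo inhibition of Friend Leukemia Virus splenomegaly in mice. For the in vivo test, compounds were given intravenously 1-2 hours post infection.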

What does the source list for `Cc1cc(O)c2c(=O)c3c(O)cc(O)c4c5c(O)cc(O)c6c(=O)c7c(O)cc(C)c8c1c2c(c34)c(c78)c65` [hypericin, Hypericin]?
Average Spleen Weight [1]: 0.7707; activity across assays [2]: high degree of activity in a more than one assay
